Data set [1] is described as follows: Absorption spectra of dye alone. It is filed as physicochemical. The settings on record: for ε: in M-1·cm-1 (unit assumed). The procedure: (§1) Stock solutions (8 mM) of each dye were prepared by dissolving each compound in dimethylsulfoxide (DMSO). Stock dye solutions were diluted to a desired concentration in tris-EDTA (TE) buffer (10 mM Tris, 1 mM EDTA, pH 8.0) immediately prior to use.
[…] […] Optical densities were determined at the absorbance maxima and the extinction coefficients were calculated using Beer's law.

A further data set concerns λDNA. Nature of the data set: Fluorescence enhancement of dye with λDNA. The format is binding. The settings on record: for Fluorescence relative to TO / Fluorescence λ DNA/ssDNA: 0.8 μM dye, 3.2 μM DNA, one minute; for Ratio λ DNA/ss: fluorescence λ DNA vs ss-DNA; for Relative Fluorescent Intensity: λ DNA, TO = 1.0. On the procedure:
as §1
(§2) Stock solutions of λDNA and 40mer synthetic oligonucleotides (dsDNA and ssDNA), each at a concentration of 40 μM, were prepared in TE buffer. All DNA concentrations described are in base pairs of nucleotides. The DNA stock solutions were diluted to a desired concentration in TE buffer before being mixed with diluted dye solutions.
(§3) Fluorescence enhancement measurements of each dye were obtained by incubating dyes with λDNA, 40mer dsDNA, or 40mer ssDNA at a final concentration of 0.8 μM dye and 3.2 μM DNA for one minute. Fluorescence scans of the samples were performed with excitation wavelengths corresponding to the absorption maxima of the dyes. The resulting fluorescence intensities were compared to fluorescence intensities of Thiazole Orange (TO) and a compound equivalent to SYBR Green without the side chain (V02-06101), shown below,
(§4) [drawing 15] binding to λDNA, 40mer dsDNA, or 40mer ssDNA at a final concentration of 0.8 μM TO and 3.2 μM DNA for one minute, the same as for the tested dyes. The discrimination ratio between dsDNA and ssDNA was calculated by comparing the fluorescence intensities.

Data set [2] deals with 40mer dsDNA. Kind of data set: Fluorescence enhancement of dye with 40mer dsDNA. The format is binding. The conditions noted are these: for Relative Fluorescent Intensity: 40-mer ds-DNA, TO = 1.0; for Ratio ds/ss: fluorescence 40-mer ds-DNA vs ss-DNA. On the procedure:
as §1, §2, §3, §4

Data set [3] relates to 40mer dsDNA. Nature of the data set: Fluorescence enhancement of dye with 40mer dsDNA. The format is binding.
The subject of a further data set is rRNA. Nature of the data set: Fluorescence of dye with rRNA. It is filed as binding.
Another data set deals with RNA. Nature of the data set: Low range RNA quantification by fluorescence. It is filed as binding. The settings on record: low range RNA assay. On the procedure: Detecting and quantifying small amounts of RNA is important in many determinations such as quantitating in vitro transcription yields and quantitating RNA concentration before performing RNA containing assays. RNA is typically quantitated by determining absorbance at 260 nm (λ260), but disadvantages include protein interference, DNA absorbance, and the need for high concentration of RNA (>4 μg/ml). More sensitive fluorescence methods must be used to quantitate small amounts of RNA. A widely used RNA quantitation dye is RiboGreen® (Invitrogen), where 1 ng/ml of RNA can be detected and quantitated with a standard fluorometer, fluorescence microplate reader, or filter fluorometer.
In one embodiment, the V11-03001 compound may be used to quantitate RNA.

Data set [4] concerns 110 bp and 925 bp fragments from human β-actin gene, 309 bp fragment from human Survivin gene, 413 bp fragment from human integrin α5 gene. Nature of the data set: qRT-PCR detection of longer PCR amplicons. The format is biochemical. The settings on record: 20 ng to 60 ng dye; 110, 309, 413, 925 bp amplicons. The procedure:
Compound V02-07027 was also used to detect the formation of longer PCR amplicons using qRT-PCR: The following by fragments were used: 110 bp and 925 bp fragments from human β-actin gene, a 309 bp fragment from human Survivin gene, and a 413 bp fragment from human integrin α5 gene. Real time PCR was performed on a Stratagene® MX3000 (Stratagene, La Jolla Calif.) instrument using an excitation wavelength of 492 nm and an emission wavelength of 516 nm. Each amplification reaction (25 μl) contained 10 ng or 100 ng of human Genomic DNA, 200 μM of each dNTP, 1.5 mM MgCl2, 50 mM KCL, 10 mM Tris-HCl, 400 nM of each of forward and reverse primers, and 2.5 units of Taq DNA polymerase (Thermo Fisher Scientific (Milwaukee Wis.)). Varying amounts of V02-07027 or a dye such as SYBR® Green (Invitrogen) were added to the reaction mix. Reactions were performed in triplicate and the data points represented the average signal.
(In general: Quantitative PCR measures a nucleic acid by following its amplification.)

Regarding `CCN(CC)c1ccc2c(/C=C3\Oc4ccccc4N3CC)cc(-c3ccccc3)[o+]c2c1` [Dye V02-06188], in data set [1] (Ethanol), the λex was determined as 520 nm and the ε is listed as 58,000. Moreover, in data set [1] (TE Buffer, 8 μM dye), the λex worked out at 499 nm and the ε is 20,444. In the data set on λDNA, the “Fluorescence relative to TO” value is reported as 0.6, the “Fluorescence λ DNA/ssDNA” value was 1.5, the “Ratio λ DNA/ss” value was determined as 2 and the “Relative Fluorescent Intensity” value is 0.6. Moreover, in the data set with 40mer dsDNA [2], the “Relative Fluorescent Intensity” value stood at 0.6 and the Ratio ds/ss was found to be 1.5. For the same compound, the “binding preference dsDNA over ssRNA” value in the data set on 40mer dsDNA [3] was “slight preference for binding to dsDNA over binding to ssRNA”.
As for `CCN(CC)c1ccc2c(/C=C3\Sc4ccccc4N3C)cc(N3CC[N+](C)(CCO)CC3)[o+]c2c1` [Dye V11-03001], in data set [1] (Ethanol), the λex came out at 490 nm and the ε is 95,000. Further, in data set [1] (TE Buffer, 8 μM dye), the λex worked out at 487 nm and the ε is reported as 65,269. Further, the “fluorescence enhancement when bound with RNA” value in the data set with rRNA is “significant fluorescence enhancement”. The “Ratio rRNA/ds” value in the data set on rRNA (fluorescence rRNA vs 40-mer ds-DNA) was 0.6. In addition, the “Ratio rRNA/ss” value in the data set on rRNA (fluorescence rRNA vs 40-mer ss-DNA) is 1.0. Besides, in the data set on λDNA (comparable to SYBR Green dye), the “fluorescence enhancement among all the dyes studied” value was “strongest fluorescence enhancement”. Further, in the data set on λDNA, the “Ratio λ DNA/ss” value turned out to be 1.8 and the “Relative Fluorescent Intensity” value is recorded as 8.7. Besides, in the data set on 40mer dsDNA [2], the “Relative Fluorescent Intensity” value was determined as 11.1 and the Ratio ds/ss came out at 1.7. Besides, in the data set with RNA, the “fluorescence intensities versus RiboGreen” value is on record as “comparable to those using RiboGreen®”. For the same compound, the “relationship between fluorescence intensity and total RNA concentration” value in the data set on RNA (FIG. 10) is reported as “linear relationship”.
Consider `CCN(CC)c1ccc2c(/C=C3\Sc4ccccc4N3C)cc(N(C)CCCN(C)C)[o+]c2c1` [Dye V02-07027], for which, in data set [1] (Ethanol), the λex is 477 nm and the ε is listed as 60,000. For the same compound, in data set [1] (TE Buffer, 8 μM dye), the λex is reported as 475 nm and the ε is reported as 39,987. In the data set with λDNA, the “Fluorescence relative to TO” value stood at 3.6, the “Fluorescence λ DNA/ssDNA” value worked out at 2.8, the “Ratio λ DNA/ss” value came to 2.8 and the “Relative Fluorescent Intensity” value was 3.6. Moreover, in the data set with 40mer dsDNA [2], the “Relative Fluorescent Intensity” value turned out to be 5.3 and the Ratio ds/ss turned out to be 2.6. Also, the “binding to amplified DNA fragments” value in data set [4] is “bound to amplified DNA fragments, generating a fluorescent signal”.

The record behind these values is patent publication US8378115B2, “Monomethine dyes” (Thermo Fisher Scientific (Milwaukee) LLC, priority 2007, dated 2013).
